Common to all, as to assay: radiometric […]-methyl transfer, Lineweaver-Burk
Type in all cases: biochemical
What all share (conditions): co-substrate S-[14C-methyl]adenosylmethionine; 100 mM Tris-HCl pH 8.0, 1 mM CoCl2, 0.5% Triton X-100; temperature of kinetic assay not stated; read-out: apparent K m

Assay [1] concerns the target T1, PtrGXM2 (Populus trichocarpa, UniProt W8JCL4).
T1 construct: gene GXM2; transmembrane domain removed; E. coli; full-length start MRPKSQQ, recombinant start SSSQESS, C-terminus DRPFCPE (translated from primers)
T1 sequence (W8JCL4 33-288): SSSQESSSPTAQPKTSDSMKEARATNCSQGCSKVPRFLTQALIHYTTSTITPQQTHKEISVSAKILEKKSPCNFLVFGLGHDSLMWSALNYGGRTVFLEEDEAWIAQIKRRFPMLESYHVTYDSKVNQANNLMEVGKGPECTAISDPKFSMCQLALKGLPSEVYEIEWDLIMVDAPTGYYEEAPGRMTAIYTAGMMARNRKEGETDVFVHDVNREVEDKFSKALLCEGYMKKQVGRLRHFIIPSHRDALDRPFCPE

In assay [2] the target is T2, PtrGXM1 (Populus trichocarpa, UniProt W8JDL1).
T2 construct: gene GXM1; transmembrane domain removed; E. coli; full-length start MRPKGQ, recombinant start PSSQESP, C-terminus DRPFCPE (translated from primers)
T2 sequence (W8JDL1 33-288): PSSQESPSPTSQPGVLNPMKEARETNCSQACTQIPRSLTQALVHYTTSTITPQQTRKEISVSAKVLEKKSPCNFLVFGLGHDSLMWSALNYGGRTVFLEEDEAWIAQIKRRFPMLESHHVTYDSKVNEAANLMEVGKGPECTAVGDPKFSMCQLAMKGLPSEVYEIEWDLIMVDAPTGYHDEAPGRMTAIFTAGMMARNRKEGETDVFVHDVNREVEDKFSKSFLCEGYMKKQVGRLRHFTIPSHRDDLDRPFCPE

The target of assay [3] is T3, PtrGXM3 (Populus trichocarpa, UniProt A9PC88).
T3 construct: gene GXM3; transmembrane domain removed; E. coli; full-length start MRPNKNQ, recombinant start SSPRSNP, C-terminus SGRPFCP (translated from primers)
T3 sequence (A9PC88 34-304): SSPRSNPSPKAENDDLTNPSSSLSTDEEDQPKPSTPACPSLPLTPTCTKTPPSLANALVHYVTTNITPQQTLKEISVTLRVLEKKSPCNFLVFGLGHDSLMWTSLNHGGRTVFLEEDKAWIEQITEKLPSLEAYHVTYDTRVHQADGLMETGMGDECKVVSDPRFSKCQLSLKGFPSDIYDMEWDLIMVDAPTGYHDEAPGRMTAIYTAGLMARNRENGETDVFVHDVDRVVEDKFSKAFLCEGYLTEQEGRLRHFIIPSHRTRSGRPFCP

Assay [4] addresses T4, PtrGXM4 (Populus trichocarpa, UniProt W8JN21).
T4 construct: gene GXM4; transmembrane domain removed; E. coli; full-length start MRSKNQS, recombinant start SPRPNSS, C-terminus SGKPFCP (translated from primers)
T4 sequence (W8JN21 34-301): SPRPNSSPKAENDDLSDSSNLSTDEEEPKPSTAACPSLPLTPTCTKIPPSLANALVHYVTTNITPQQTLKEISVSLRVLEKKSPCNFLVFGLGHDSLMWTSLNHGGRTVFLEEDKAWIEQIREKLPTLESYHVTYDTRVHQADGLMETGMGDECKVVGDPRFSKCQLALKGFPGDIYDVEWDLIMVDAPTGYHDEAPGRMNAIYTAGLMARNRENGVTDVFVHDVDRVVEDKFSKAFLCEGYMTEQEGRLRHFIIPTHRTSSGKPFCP

In the case of GlcA-substituted Xyl4, the Km was 3980 µM in assay [1], 3250 µM in assay [2], 300 µM in assay [3] and 290 µM in assay [4].
